Assay results published in patent US20040043959A1, “Combination therapies for treating methylthioadenosine phosphorylase deficient cells” (priority 2002, published 2004).

Molecular target: T1, Human MTAP (Homo sapiens, UniProt Q13126)
T1 construct: six-histidine tag (His6) (N); made in house; host or cells: E. coli BL21 DE3
T1 sequence (Q13126 1-283): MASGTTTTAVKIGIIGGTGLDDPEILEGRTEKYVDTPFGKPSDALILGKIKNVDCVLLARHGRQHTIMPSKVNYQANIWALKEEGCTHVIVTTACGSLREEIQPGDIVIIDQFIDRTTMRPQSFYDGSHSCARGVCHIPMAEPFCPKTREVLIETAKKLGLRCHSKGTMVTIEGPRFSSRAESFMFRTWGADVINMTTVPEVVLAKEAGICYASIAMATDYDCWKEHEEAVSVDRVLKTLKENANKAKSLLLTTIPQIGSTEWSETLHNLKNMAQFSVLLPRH
Experiment: MTAP substrate assay, coupled spectrophotometric (adenine, xanthine oxidase)
Format: biochemical
Conditions: 2 nM MTAP; for activity at 50 µM: 10 min, compound 50 uM, relative to MTA at 50 uM, read-out: MT-A—50: initial velocity as a percentage of the initial velocity with MTA as substrate; for MT-A—10: initial velocity as a percentage of the initial velocity with MTA as substrate: compound 10 uM, relative to MTA at 10 uM
Method in brief: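 Detection was xanthine oxidase-coupled (0.8 units/ml), reading adenine-derived absorbance at 305 nm over 10 min in potassium phosphate/DTT buffer at 37° C, with N-His6 enzyme purified from E. coli.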

activity at 50 µM [%] | MT-A—10: initial velocity as a percentage of the initial velocity with MTA as substrate [%] | Structure (SMILES)
51 | 47 | Nc1ncnc2c1ncn2[C@@H]1O[C@H](CSCc2ccc(Cl)cc2)[C@@H](O)[C@H]1O [2(G)(124), (2R, 3R, 4S, 5S)-2-(6-amino-9H-purin-9-yl)-5-[{(4-chlorobenzyl)thio]-methyl}tetrahydrofuran-3,4-diol]
62.5 | 101 | CCCCCCCSC[C@H]1O[C@@H](n2cnc3c(N)ncnc32)[C@H](O)[C@@H]1O [2(G)(125), (2R, 3R, 4S, 5S)-2-(6-amino-9H-purin-9-yl)-5-[(heptylthio)methyl]-tetrahydrofuran-3,4-diol]
67.5 | 72 | CCCCCCSC[C@H]1O[C@@H](n2cnc3c(N)ncnc32)[C@H](O)[C@@H]1O [2(G)(126), (2R, 3R, 4S, 5S)-2-(6-amino-9H-purin-9-yl)-5-[(hexylthio)methyl]tetra-hydrofuran-3,4-diol]
58.5 | 56 | Nc1ncnc2c1ncn2[C@@H]1O[C@H](CSCc2ccccc2F)[C@@H](O)[C@H]1O [2(G)(127), (2R, 3R, 4S, 5S)-2-(6-amino-9H-purin-9-yl)-5-{[(2-fluorobenzyl)-thio]methyl}tetrahydro-furan-3,4-diol]
10.5 | 11 | Nc1ncnc2c1ncn2[C@@H]1O[C@H](CSc2ccc(Cl)c(Cl)c2)[C@@H](O)[C@H]1O [2(G)(128), (2R, 3R, 4S, 5S)-2-(6-amino-9H-purin-9-yl)-5{[(3,4-dichlorophenyl)-thio]methyl}tetrahydro-furan-3,4-diol]
41.5 | 46 | CCCCCCCCCCSC[C@H]1O[C@@H](n2cnc3c(N)ncnc32)[C@H](O)[C@@H]1O [2(G)(129), (2R, 3R, 4S, 5S)-2-(6-amino-9H-purin-9-yl)-5-[(decylthio)methyl]tetra-hydrofuran-3,4-diol]
4.5 | −2 | Nc1ncnc2c1ncn2[C@@H]1O[C@H](CSc2ccc(Cl)cc2Cl)[C@@H](O)[C@H]1O [2(G)(130), (2R, 3R, 4S, 5S)-2-(6-amino-9H-purin-9-yl)-5-{[(2,4-dichlorophenyl)-thio]methyl}tetrahydro-furan-3,4-diol]
11 | 11.5 | Nc1ncnc2c1ncn2[C@@H]1O[C@H](CSc2cc(Cl)cc(Cl)c2)[C@@H](O)[C@H]1O [2(G)(131), (2R, 3R, 4S, 5S)-2-(6-amino-9H-purin-9-yl)-5-{[(3,5-dichlorophenyl)-thio]methyl}tetrahydro-furan-3,4-diol]
1.5 | 0 | CCOC(=O)c1c[nH]c(SC[C@H]2O[C@@H](n3cnc4c(N)ncnc43)[C@H](O)[C@@H]2O)n1 [2(G)(132), Ethyl 2-({[(2S, 3S, 4R, 5R)-5-(6-amino-9H-purin-9-yl)-3,4-dihydroxytetra-hydrofuran-2-yl]methyl}thio)-1H-imidazole-4-carboxylate]
31.5 | 22.5 | CCCCOC(=O)CSC[C@H]1O[C@@H](n2cnc3c(N)ncnc32)[C@H](O)[C@@H]1O [2(G)(133), Butyl ({[(2S, 3S, 4R, 5R)-5-(6-amino-9H-purin-9-yl)-3,4-dihydroxytetra-hydrofuran-2-yl]methyl}-thio)acetate]
37.5 | 18 | CCCCNCCSC[C@H]1O[C@@H](n2cnc3c(N)ncnc32)[C@H](O)[C@@H]1O [2(G)(136), (2R, 3R, 4S, 5S)-2-(6-amino-9H-purin-9-yl)-5-({[2-(butylamino)-ethyl]thio}methyl)-tetrahydrofuran-3,4-diol]
2 | 3.5 | Cc1cc(C)c(CSC[C@H]2O[C@@H](n3cnc4c(N)ncnc43)[C@H](O)[C@@H]2O)c(C)c1 [2(G)(137), (2R, 3R, 4S, 5S)-2-(6-amino-9H-purin-9-yl)-5-{[(mesitylmethyl)thio]-methyl}tetrahydrofuran-3,4-diol]
12.5 | 9 | Nc1ncnc2c1ncn2[C@@H]1O[C@H](CSc2nc(-c3ccccc3)cs2)[C@@H](O)[C@H]1O [2(G)(138), (2R, 3R, 4S, 5S)-2-(6-amino-9H-purin-9-yl)-5-{[(4-phenyl-1,3-thiazol-2-yl)thio]methyl}-tetrahydrofuran-3,4-diol]
30 | 26.5 | CCCCOC(=O)CCSC[C@H]1O[C@@H](n2cnc3c(N)ncnc32)[C@H](O)[C@@H]1O [2(G)(139), Butyl 3-({[(2S, 3S, 4R, 5R)-5-(6-amino-9H-purin-9-yl)-dihydroxytetrahydro-furan-2-yl]methyl}thio)-propanoate]
7.5 | 3 | CCOC(=O)C(C)SC[C@H]1O[C@@H](n2cnc3c(N)ncnc32)[C@H](O)[C@@H]1O (stereo partly drawn) [2(G)(140), Ethyl 2-({[(2S, 3S, 4R, 5R)-5-(6-amino-9H-purin-9-yl)-3,4-dihydroxytetra-hydrofuran-2-yl]methyl}-thio)-propanoate]
27 | 10 | CC(O)CSC[C@H]1O[C@@H](n2cnc3c(N)ncnc32)[C@H](O)[C@@H]1O (stereo partly drawn) [2(G)(141), (2R, 3R, 4S, 5S)-2-(6-amino-9H-purin-9-yl)-5-{[(2-hydroxypropyl)-thio]methyl}tetrahydro-furan-3,4-diol]
58 | 1.5 | CCCCCCCCSC[C@H]1O[C@@H](n2cnc3c(N)ncnc32)[C@H](O)[C@@H]1O [2(G)(142), (2R, 3R, 4S, 5S)-2-(6-amino-9H-purin-9-yl)-5-[(octylthio)methyl]tetra-hydrofuran-3,4-diol]
7.5 | 18 | CC(O)C(C)SC[C@H]1O[C@@H](n2cnc3c(N)ncnc32)[C@H](O)[C@@H]1O (stereo partly drawn) [2(G)(144), (2R, 3R, 4S, 5S)-2-(6-amino-9H-purin-9-yl)-5-{[(2-hydroxy-1-methyl-propyl)thio]methyl}tetra-hydrofuran-3,4-diol]
16 | 3.5 | Nc1ncnc2c1ncn2[C@@H]1O[C@H](CSCc2ccc(Cl)c(Cl)c2)[C@@H](O)[C@H]1O [2(G)(145), (2R, 3R, 4S, 5S)-2-(6-amino-9H-purin-9-yl)-5-{[(3,4-dichlorobenzyl)-thio]methyl}tetrahydro-furan-3,4-diol]
2 | 28 | CC(C)c1ccccc1SC[C@H]1O[C@@H](n2cnc3c(N)ncnc32)[C@H](O)[C@@H]1O [2(G)(146), (2R, 3R, 4S, 5S)-2-(6-amino-9H-purin-9-yl)-5-{[(2-isopropylphenyl)-thio]methyl}tetrahydro-furan-3,4-diol]
25.5 | 18.5 | Nc1ncnc2c1ncn2[C@@H]1O[C@H](CSc2cccc(F)c2)[C@@H](O)[C@H]1O [2(G)(147), (2R, 3R, 4S, 5S)-2-(6-amino-9H-purin-9-yl)-5-{[(3-fluorophenyl)-thio]methyl}tetrahydro-furan-3,4-diol]
15 | 2 | Cc1cc(C)cc(SC[C@H]2O[C@@H](n3cnc4c(N)ncnc43)[C@H](O)[C@@H]2O)c1 [2(G)(148), (2R, 3R, 4S, 5S)-2-(6-amino-9H-purin-9-yl)-5-{[(3,5-dimethylphenyl)-thio]methyl}tetrahydro-furan-3,4-diol]
2.5 | 35.5 | Cc1ccc(SC[C@H]2O[C@@H](n3cnc4c(N)ncnc43)[C@H](O)[C@@H]2O)c(C)c1 [2(G)(149), (2R, 3R, 4S, 5S)-2-(6-amino-9H-purin-9-yl)-5-{[(2,4-dimethylphenyl)-thio]methyl}tetrahydro-furan-3,4-diol]
33.5 | 2 | Cc1ccc(SC[C@H]2O[C@@H](n3cnc4c(N)ncnc43)[C@H](O)[C@@H]2O)cc1C [2(G)(150), (2R, 3R, 4S, 5S)-2-(6-amino-9H-purin-9-yl)-5-{[(3,4-dimethylphenyl)-thio]methyl}tetrahydro-furan-3,4-diol]
2 | 13.5 | Nc1ncnc2c1ncn2[C@@H]1O[C@H](CSc2cccc(Cl)c2Cl)[C@@H](O)[C@H]1O [2(G)(151), (2R, 3R, 4S, 5S)-2-(6-amino-9H-purin-9-yl)-5-{[(2,3-dichlorophenyl)-thio]methyl}tetrahydro-furan-3,4-diol]
17 | 19.5 | CSc1nsc(SC[C@H]2O[C@@H](n3cnc4c(N)ncnc43)[C@H](O)[C@@H]2O)n1 [2(G)(152), (2R, 3R, 4S, 5S)-2-(6-amino-9H-purin-9-yl)-5-({[3-(methylthio)-1,2,4-thiodiazol-5-yl)-thio}methyl)tetrahydro-furan-3,4-diol]
